Entries after “also recorded” stand apart in the source; their conditions may differ.
Assays:
[1] = Surface plasmon resonance, binding to PC/PIP2 liposomes on sensor chip; conditions: for Kd: SPR equilibrium binding, PC/PIP2 (20∶1) liposomes, 25°C, HBSS, read-out: equilibrium dissociation constant KD; for binding to PIP2 containing liposomes (in words): SPR, PC/PIP2 liposomes
Method: All SPR measurements were performed at 25°C using a liposome-coated NLC chip in aProteOn XPR36 Protein Interaction Array System (Bio-rad, Hercules, CA, USA). […] Lipid solution (10 mg/ml) in HBSS was mixed with 8 µM oligonucleotide 5′-[…]-3′, modified at the 3′ end with cholesterol (Generi-Biotech, Hradec Kralove, Czech Republic), and the mixture was extruded using a LiposoFast Basic apparatus (Avestin Europe, Mannheim, Germany) with a polycarbonate membrane with a 100-nm pore diameter (Avestin Europe, Mannheim, Germany). The lipid/DNA ratio was 1200∶1. The vesicles were then incubated with 8 µM anti-sense oligonucleotide 5′-[…]-3′, modified at the 5′ end with biotin (Generi-Biotech, Hradec Kralove, Czech Republic), and washed by centrifugation (50,000 g) for 30 min at 4°C. The vesicles were diluted to a final concentration of 1 mg/ml in HBSS and immobilized on the streptavidin-coated NLC chip (Bio-rad, Hercules, CA, USA) surface at a flow rate of 25 µl/min for 10 min to give ∼800 −1500 resonance units (RU). All SPR measurements were carried out in HBSS at a flow rate of 30 µl/min for both the association and dissociation phase of the sensograms. For determining equilibrium binding, the association phases of five different concentrations of each protein were brought to near-equilibrium values (Req). Surfaces were typically regenerated with 50 µl of 1 M NaCl and 20 mM glycin buffer, pH 3.5. The sensograms were corrected for sensor background by interspot referencing (the sites within the 6×6 array which are not exposed to ligand immobilization but are exposed to analyte flow), and double referenced by subtraction of the analyte using a “blank” injection. Assuming a Langmuir-type binding between the protein (P) and protein binding sites (S) on vesicles (i.e. P + S ↔ PS), Req values were then plotted versus protein concentration (P0), and the KD value was determined by nonlinear least-squares analysis of the binding isotherm using the equation Req = Rmax/(1+KD/P0).

CaM = system: CaM; parameters: method as in PMID 18755153; conditions: TRPV1-CT fusion protein mutants; cited from earlier work
[2] = Steady state fluorescence anisotropy binding assay with PIP2-Bodipy; conditions: for Kd: PIP2-Bodipy 10 nM titrated with protein or peptide, room temperature, read-out: equilibrium dissociation constant KD
Method: (§1) Peptides were dissolved in 50 mM Tris-HCl (pH 7.5), 100 mM NaCl buffer and were used for measurements of fluorescence anisotropy. Steady-state fluorescence anisotropy measurements were performed in an ISS Photon Counting Steady-State Spectrofluorimeter (ISS PC1TM) at room temperature with a PIP2-Bodipy® FL C5, C6-PtdIns(4,5)P2 molecular probe (Invitrogen, cat. n. B22627, Figure S3A), hereafter denoted as PIP2-Bodipy and the control experiment was done with 16∶0-06∶0 NBD PC 1-palmitoyl-2-{6-[(7-nitro-2-1,3-benzoxadiazol-4-yl)amino]hexanoyl}-sn-glycero-3-phosphocholine in chloroform (NBD-PC), (Avanti Polar Lipids, Inc. Cat. n. 810130C, Figure S3B) The PIP2-Bodipy probe was diluted in deionized H2O. The final concentration of the fluorescently labeled probe in the measuring buffer in the cuvette was 10 nM and increasing amounts of peptides and fusion protein TRPV1 respectively were titrated into the cuvette. PIP2-Bodipy excitation and emission wavelengths were set to 500 nm and 512 nm and for NBD – PC 460 nm and 534 nm respectively. At each peptide concentration, steady-state fluorescence anisotropy was recorded. The fraction of TRPV1s regions or their mutants bound to fluorescent probe was determined from the anisotropy changes using Eq. (1), where FB is the fraction bound, rmin and rmax are the anisotropies of the free and bound PIP2-Bodipy with TRPV1-CT, pTRPV1 regions or its mutants, robs is the observed anisotropy, and Q is the ratio of the intensities of the free and bound protein (fmax/fmin). All experiments were carried out in at least triplicate. [drawing 1] (1)
The FB was plotted against the TRPV1 peptides and fusion proteins concentration respectively and fitted using Eq. (2) to determine the equilibrium dissociation constant (KD). Non-linear data fitting was performed using the package SigmaPlot 2000 (6.1) SPSS Inc. P1 is the concentration of PIP2-Bodipy and P2 is the concentration of TRPV1 fusion protein or TRPPV1 synthetic peptides. [drawing 2] (2)

[3] = ELISA, influence of liposome composition on binding to immobilized TRPV1-CT; conditions: liposomes of different composition
Method: The lipids L-α-phosphatidylinositol-4,5-bisphosphate (PIP2), 1,2-dimyristoyl-sn-glycero-3- Phosphatidylserine (PS), 1,2-dimyristoyl-sn-glycero-3-phosphocholine (PC) and 1,2-dimyristoyl-sn-glycero-3- Phosphatidylethanolamine (PE) were obtained from Avanti Polar Lipis, Inc. A stock solution of each lipid was prepared in chloroform, except for PIP2 stock solution, which was prepared in a chloroform:methanol (2∶1) mixture. Liposomes of the following compositions were prepared: PC, PC/PIP2 97/3%, PC/PIP2 90/10%, PC/PIP2/PS 70/10/20%, PC/PIP2/PS/PE 40/10/20/30%, PC/PIP2/PE 70/10/20%, PC/PIP2/PE 77/3/20%, PC/PE/PS 50/30/20% by mixing appropriate volumes of the stock solutions. After being dried under an N2 stream, lipid films were hydrated with 1× HBSS buffer containing 8 µM oligonucleotide 5′-[…]-3′, modified at the 3′ end with cholesterol (Generi-Biotech, Hradec Kralove, Czech Republic)- followed by extrusion 20 times through a polycarbonate membrane with a 100-nm pore diameter (Avestin Europe, Mannheim, Germany). Finally 8 µM complementary oligonucleotide Biotin conjugate 5′-[…]-3′ (Generi-Biotech, Hradec Kralove, Czech Republic) was added to the liposome mixture. A 20-min incubation was followed by centrifugation and washing steps to remove the unbound oligonucleotide-Biotin conjugate.
96-well micro titer plates were used. […] Absorbance was read at 490 nm using a micro plate reader.

[4] = Control steady-state fluorescence anisotropy with NBD-PC; assay type: binding; conditions: NBD-PC 10 nM
Method: as §1, with “PIP2-Bodipy excitation and emission wavelengths were set to 500 nm and 512 nm and for NBD – PC 460 nm and 534 nm respectively.” left out, “All experiments were carried out in at least triplicate. [drawing 1] (1)” left out

[5] = Control SPR with liposomes containing only phosphatidylcholine; assay type: binding; conditions: liposomes not containing PIP2
Method: All SPR measurements were performed at 25°C using a liposome-coated NLC chip in aProteOn XPR36 Protein Interaction Array System (Bio-rad, Hercules, CA, USA). Liposomes (100 nm in diameter) were made from 1,2-dimyristoyl-sn-glycero-3-phosphocholine (PC) and L-α-phosphatidylinositol-4,5-bisphosphate (PIP2) (Avanti Lipids, Alabaster, AL, USA) at a molar ratio of 20∶1 (PC/PIP2). Lipid solution (10 mg/ml) in HBSS was mixed with 8 µM oligonucleotide 5′-[…]-3′, modified at the 3′ end with cholesterol (Generi-Biotech, Hradec Kralove, Czech Republic), and the mixture was extruded using a LiposoFast Basic apparatus (Avestin Europe, Mannheim, Germany) with a polycarbonate membrane with a 100-nm pore diameter (Avestin Europe, Mannheim, Germany). The lipid/DNA ratio was 1200∶1. The vesicles were then incubated with 8 µM anti-sense oligonucleotide 5′-[…]-3′, modified at the 5′ end with biotin (Generi-Biotech, Hradec Kralove, Czech Republic), and washed by centrifugation (50,000 g) for 30 min at 4°C. […] Assuming a Langmuir-type binding between the protein (P) and protein binding sites (S) on vesicles (i.e. P + S ↔ PS), Req values were then plotted versus protein concentration (P0), and the KD value was determined by nonlinear least-squares analysis of the binding isotherm using the equation Req = Rmax/(1+KD/P0).

Kd [1] [µM]	Molecule	binding to PIP2 containing liposomes (in words) [1]	other results
> 150	R778A: single alanine mutant of TRPV1-CT (712–838) thioredoxin fusion protein	total loss of binding affinity; also recorded: inhibited the PIP2 binding	CaM binding (in words) (CaM): did not prevent CaM binding
–	thioredoxin: fusion tag protein titrated alone as control [reference compound]	–	binding to PIP2-Bodipy (in words) ([2]; PIP2-Bodipy 10 nM): no thioredoxin–PIP2 binding
> 150	R771A/R778A: double alanine mutant of TRPV1-CT (712–838) thioredoxin fusion protein	total loss of binding affinity; also recorded: avoided PIP2 binding totally	–
9.1 ± 3.8	R781A: single alanine mutant of TRPV1-CT (712–838) thioredoxin fusion protein	–	–
5.8 ± 0.8	K770A/R785A: double alanine mutant of TRPV1-CT (712–838) thioredoxin fusion protein	suppressed this interaction partially	–
3 ± 0.4	TRPV1-CT: rat TRPV1 C-tail amino acids 712–838 expressed in E. coli as fusion protein with thioredoxin and 6× His tags	–	Kd ([2]; listed as WT TRPV1-CT): 3.5 ± 0.9 µM; Kd [2]: 3.48 µM; SPR binding response ([1]; protein washed over PC/PIP2 liposome chip after regeneration step): approx. 1000 RU; selectivity for PIP2 over other lipids (in words) [3]: modest selectivity for PIP2 over other used lipids; interaction with NBD PC (in words) [4]: no interaction; interaction with liposomes containing only PC (in words) [5]: just a weak interaction was detected
33.5 ± 11.7	R771A/R781A: double alanine mutant of TRPV1-CT (712–838) thioredoxin fusion protein	suppressed this interaction partially	–
–	R771A: single alanine mutant of TRPV1-CT (712–838) thioredoxin fusion protein	preserves its binding ability to PIP2	CaM binding (in words) (CaM): significantly inhibits the CaM binding
> 150	K770A/R778A/R785A: triple alanine mutant of TRPV1-CT (712–838) thioredoxin fusion protein (protein, UniProt O35433 712-838, looked up, variant K770A R778A R785A, thioredoxin fusion, His tag, triple alanine mutant of TRPV1-CT (712–838) thioredoxin fusion protein) FLKCMRKAFRSGKLLQVGFTPDGKDDYRWCFRVDEVNWTTWNTNVGIINEDPGNCEGVARTLSFSLASGRVSGANWKNFALVPLLRDASTRDRHATQQEEVQLKHYTGSLKPEDAEVFKDSMVPGEK	total loss of binding affinity; also recorded: avoided PIP2 binding totally	–
3.6 ± 0.5	K770A/R781A/R785A: triple alanine mutant of TRPV1-CT (712–838) thioredoxin fusion protein (protein, UniProt O35433 712-838, looked up, variant K770A R781A R785A, thioredoxin fusion, His tag, triple alanine mutant of TRPV1-CT (712–838) thioredoxin fusion protein) FLKCMRKAFRSGKLLQVGFTPDGKDDYRWCFRVDEVNWTTWNTNVGIINEDPGNCEGVARTLSFSLRSGAVSGANWKNFALVPLLRDASTRDRHATQQEEVQLKHYTGSLKPEDAEVFKDSMVPGEK	–	–

— article PMC3485206, “Integrative Binding Sites within Intracellular Termini of TRPV1 Receptor” (PLoS ONE, 2012)
